Assay results published in BindingDB's records for PubMed 25415869 (Genentech).

Key:
[1] = molecular target: Serine/threonine-protein kinase PAK 1 (Homo sapiens) (UniProt Q13153); assay: Inhibition of PAK1 (unknown origin) in presence of ATP by Z-LYTE enzymatic kinase assay
[2] = molecular target: Serine/threonine-protein kinase PAK 1 (Homo sapiens) (UniProt Q13153); assay: Inhibition of PAK1 (unknown origin)
[3] = molecular target: Serine/threonine-protein kinase PAK 1 (Homo sapiens) (UniProt Q13153); assay: Inhibition of PAK1 (unknown origin) in presence of ATP
[4] = molecular target: Serine/threonine-protein kinase PAK 1 (Homo sapiens) (UniProt Q13153); assay: Inhibition of PAK1 (unknown origin) using 5-FAM-KPDRKKRYTVVGNPY-amide as substrate incubated for 120 mins by caliper off-chip mobility shift assay
[5] = molecular target: Serine/threonine-protein kinase PAK1; assay: Inhibition of human recombinant PAK1 using KKRNRRLSVA as substrate assessed as inhibition constant preincubated with compound for 10 mins followed by substrate addition and measured after 60 mins by FRET assay

Serine/threonine-protein kinase PAK 1 (Homo sapiens), sequence (Q13153 whole entry, looked up): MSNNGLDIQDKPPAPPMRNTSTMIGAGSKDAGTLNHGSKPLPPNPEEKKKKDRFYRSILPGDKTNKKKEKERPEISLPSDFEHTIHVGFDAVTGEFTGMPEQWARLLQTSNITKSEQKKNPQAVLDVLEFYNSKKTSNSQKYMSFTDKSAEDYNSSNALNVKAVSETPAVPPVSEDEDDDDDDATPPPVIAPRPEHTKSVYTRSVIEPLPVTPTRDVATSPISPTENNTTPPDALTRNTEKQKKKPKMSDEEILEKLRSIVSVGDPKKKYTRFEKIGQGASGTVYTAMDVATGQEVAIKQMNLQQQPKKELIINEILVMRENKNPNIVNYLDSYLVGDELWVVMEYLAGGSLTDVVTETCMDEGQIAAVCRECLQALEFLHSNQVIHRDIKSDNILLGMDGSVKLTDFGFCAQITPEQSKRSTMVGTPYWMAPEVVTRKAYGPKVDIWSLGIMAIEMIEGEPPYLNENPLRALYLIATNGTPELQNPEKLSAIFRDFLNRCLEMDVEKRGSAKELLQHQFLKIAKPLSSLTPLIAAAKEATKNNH

Compound	IC50 [2] [µM]	further results
CCn1c(=O)c(-c2ccc(Cl)cc2Cl)cc2cnc(Nc3ccc(N4CCN(C)CC4)cc3)nc21 [FRAX414]	–	IC50 [1]: 0.02 µM
CN1CCN(c2ccc(Nc3ncc4ccc(=O)n(C5CCCC5)c4n3)cc2)CC1 [Pyrido[2,3-d]pyrimidin-7-one 1]	–	IC50 [1]: 0.483 µM
CCN(Cc1ccc2[nH]cnc2c1Cl)c1nccc(Nc2cc(C(C)C)[nH]n2)n1	0.0016	–
O=C1NC(=O)c2cc(-c3ccccn3)ccc21	–	IC50 [3]: > 100 µM
CN[C@@H]1C[C@H]2O[C@@](C)([C@@H]1OC)n1c3ccccc3c3c4c(c5c6cc(O)ccc6n2c5c31)C(=O)NC4	0.001	–
O=C(c1ccccc1Cl)c1n[nH]c2ncc(-c3cnn(C4CCNCC4)c3)cc12	–	IC50 [4]: 0.02 µM
Cc1nc2ccc(C#CC(C)(C)O)cc2n1-c1ncnc(N)n1	–	Ki [5]: 15.3 µM

The next lines start with results.

IC50 [2] [µM]	Compound	further results
0.008	CN(Cc1ccc2[nH]ccc2n1)c1nccc(Nc2cc([C@H]3C[C@@H]3F)[nH]n2)n1	–
0.004	CCn1c(=O)c(-c2ccc(-c3noc(C)n3)cc2Cl)cc2cnc(Nc3ccc(C4CCN(C)CC4)cc3)nc21	–
0.34	CCN1c2ccc(F)cc2N=C(N2CCN(C)CC2)c2cc(Cl)ccc21	–
